Solubility and IC50 data for three molecules are collected here from article PMC11574061, “Experimental and computational studies on possibility of using glucose diazacrown cryptand as a carrier for anticancer drugs busulfan and lomustine” (Scientific Reports, 2024).

Data set [1] is described as follows: Approximate water solubility, stepwise addition of water. In kind it is physicochemical. The note with it: thermodynamic from solid; in water; estimated approximately, 1 mg substance, water added in 0.1 ml portions until clear. As for the experimental part:
The complexes were prepared according to the procedure described in a previous publication for the complex of another cryptand with BSF[7]. A solution of 2.5 mg (0.01 mmol) BSF in 0.25 ml DMSO was added under argon to a solution of 9.8 mg (0.01 mmol) cryptand 9 (L1) in 12.5 ml water at room temperature. […] The water solubility of the pure cryptand L1, both drugs and their complexes was estimated approximately using a simple method. For each compound separately, 1 mg of the substance was placed in a vial and water was added to it in portions of 0.1 ml. After each addition, the mixture was stirred for 10 min, and the clarity of the solution was checked with a magnifying glass. Stirring was stopped when the solution became completely clear.

Data set [2] deals with normal colon fibroblasts CCD-18Co. Briefly: MTT cytotoxicity assay, CCD-18Co. Type of data set: cell-based, human. The note with it: 72 h. As for the experimental part: (§1) Breast cancer cells MCF-7, colon cancer cells HT-29, normal breast epithelial cells MCF-10 A and normal colon fibroblasts CCD-18Co were used as a cell model for testing the effect of compounds on the viability of cells. The cells were seeded in Dulbecco’s Modified Eagle Medium (DMEM) medium in 96-well plates and incubated for 24 h in a 5% CO2 atmosphere at 37 °C. MCF-10 A cells were grown in a medium supplemented with 0.4% bovine pituitary extract (BPE), 3 ng ml^− 1 hEGF, 5 µg ml^− 1 insulin, 0.5 µg ml^− 1 hydrocortisone and 100ng mL^− 1 cholera toxin. After that, cells were treated with different concentrations: 2.5, 10, 25, 50, 100, and 200 µM, of compounds for 72 h. Busulfan and lomustine were freshly dissolved in DMSO immediately before cell treatment. The solution of other compounds (lyophilized) were prepared in 30% DMSO. Then, a series of dilutions were prepared. The final concentrations of drugs, cryptand and complexes were in range 2.5–200 µM. The final concentration of DMSO diluted in culture medium was 0.2% for all experiments. The controls (without drugs) were treated with 0.2% DMSO. In this concentration DMSO was not cytotoxic for cells which was confirmed by preliminary experiments. The viability of cells treated with the tested compounds was assessed by measuring the ability of live cells to metabolize 3-(4,5-dimethylthiazolo-2-yl)-2,5-diphenyl tetrazolium bromide (MTT) to formazan, using a standard protocol. Briefly, after incubation with compounds, the medium of each well was discarded, cells were washed with PBS, and then 100 µL of fresh media with 10 µL MTT solution (5 mg mL^− 1 in PBS) was added to each well. After 4 h incubation at 37 °C, the produced formazan was solubilized by the addition of DMSO, and the absorbance of each well was determined at 570 nm using an ELISA reader. The results were expressed as the mean of at least four replicates as a percentage of control (taken as 100% - cells).
A general note: Tetrazolium assays rely on reduction of a dye to a coloured formazan, in cell work by metabolically active cells.

A further data set has as its system colon cancer cells HT-29. Put plainly: MTT cytotoxicity assay, HT-29. Type of data set: cell-based, human. As for the experimental part:
as §1

For data set [3], the system named is normal breast epithelial cells MCF-10 A. Put plainly: MTT cytotoxicity assay, MCF-10 A. Type of data set: cell-based, human. The following applies: 72 h. As for the experimental part:
as §1

In data set [4] the test system is breast cancer cells MCF-7. Briefly: MTT cytotoxicity assay, MCF-7. Type of data set: cell-based, human. As for the experimental part:
as §1

Setting [5] is: CCD-18Co normal colon cells, MTT, 2.5–200 µM, mean ± SD, – = IC50 not reached in the range used.
The mark [6] stands for this setting: HT-29 colon cancer cells, 72 h, MTT, 2.5–200 µM, mean ± SD, – = IC50 not reached in the range used.
[7] abbreviates: MCF-10 A normal breast cells, MTT, 2.5–200 µM, mean ± SD, – = IC50 not reached in the range used.
[8] abbreviates: MCF-7 breast cancer cells, 72 h, MTT, 2.5–200 µM, mean ± SD, – = IC50 not reached in the range used.
Setting [9] is: Homo sapiens, CCD-18Co, read-out: IC50.
[10] abbreviates: Homo sapiens, HT-29, 72 h, read-out: IC50.
Where [11] appears, read: Homo sapiens, MCF-10A, read-out: IC50.
Setting [12] is: Homo sapiens, MCF7, 72 h, read-out: IC50.

Converted amounts (≈) assume the structure as drawn. Where two headings read alike, the source gives them in different places.

Consider `O=C1NCC2OC(NC(=O)N3CCOCCOCCN(CCOCCOCC3)C(=O)NC3OC(CNC(=O)N4CCOCCOCCN1CCOCCOCC4)C(O)C(O)C3O)C(O)C(O)C2O` (stereo not shown) [L1], for which, in data set [1], the solubility – broadly, the dissolved amount per volume that the medium holds – was 20 mg/mL (≈ 20.3 mM). Also, the IC50 entry (in data set [2] (setting [5]); in the data set with colon cancer cells HT-29 (setting [6]); in data set [3] (setting [7]); in data set [4] (setting [8])) was “had not been reached” throughout.
In the case of `O=NN(CCCl)C(=O)NC1CCCCC1` [CCNU, 1-(2-chloroethyl)-3-cyclohexyl-1-nitrosourea], in data set [1], the solubility was 0.05 mg/mL (≈ 0.214 mM). Further, the IC50 (usually the concentration that inhibits the measured activity by half) in data set [2] (setting [9]) was found to be 56.2 ± 7.8 µM; in the data set on colon cancer cells HT-29 (setting [10]), 8.91 ± 1.5 µM; in data set [3] (setting [11]) it was 48.9 ± 5.4 µM; in data set [4] (setting [12]), 8.41 ± 1.6 µM.
`CS(=O)(=O)OCCCCOS(C)(=O)=O` [BSF, butane-1,4-diyl dimethanesulfonate]: the solubility in data set [1] was 0.13 mg/mL. Further, the IC50 entry in data set [2] (setting [5]) is “not achieved”; in data set [2] (setting [9]) it was more than 200 µM; in the data set with colon cancer cells HT-29 (setting [6]), “not achieved”; in the data set with colon cancer cells HT-29 (setting [10]), more than 200 µM; in data set [3] (setting [11]), more than 200 µM; in data set [3] (setting [7]), “not achieved”. Moreover, the IC50 in data set [4] (setting [12]) was more than 200 µM; in data set [4] (setting [8]), “not achieved”.
